According to article PMC2775898 (The EMBO Journal, 2009):
Where a SMILES comes first, the peptide text is derived from it. The star is where a group is joined. Biotin = O=C1N[C@H]2[C@H](CS[C@H]2CCCCC(=O)*)N1

Target: T1, Tiam2 PHCCEx domain (Mus musculus, UniProt Q6ZPF3)
T1 sequence (Q6ZPF3 500-757): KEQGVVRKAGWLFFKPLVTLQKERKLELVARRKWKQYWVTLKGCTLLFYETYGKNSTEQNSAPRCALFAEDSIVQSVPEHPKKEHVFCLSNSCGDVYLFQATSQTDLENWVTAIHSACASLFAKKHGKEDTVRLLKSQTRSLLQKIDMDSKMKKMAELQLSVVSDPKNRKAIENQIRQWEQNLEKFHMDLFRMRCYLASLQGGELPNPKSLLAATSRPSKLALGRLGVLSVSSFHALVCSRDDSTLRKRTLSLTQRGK
Test: Equilibrium SPR binding of biotinylated peptides to the Tiam2 PHCCEx domain
Conditions: N-terminal biotinylated peptide immobilized

CC[C@H](C)[C@H](NC(=O)[C@@H](NC(=O)[C@H](CC(=O)O)NC(=O)[C@H](CO)NC(=O)[C@@H]1CCCN1C(=O)[C@H](CCC(=O)O)NC(=O)[C@H](CO)NC(=O)CNC(=O)[C@H](CC(N)=O)NC(=O)CCCC[C@@H]1SC[C@@H]2NC(=O)N[C@@H]21)C(C)C)C(=O)N[C@H](C(=O)N1CCC[C@H]1C(=O)N[C@@H](CC(C)C)C(=O)N[C@@H](CCCNC(=N)N)C(=O)N[C@H](C(=O)N[C@@H](C)C(=O)N[C@@H](CC(=O)O)C(=O)N[C@@H](CO)C(=O)N[C@H](C(=O)N[C@@H](Cc1ccccc1)C(=O)O)C(C)C)[C@@H](C)O)[C@@H](C)CC [ephrin B2 285–302] (Biotin-NGSEPSDVIIPLRTADSVF-OH; C-terminus assumed)
Binding to the Tiam2 PHCCEx domain (in words): in the micromolar range

CC[C@H](C)[C@H](NC(=O)[C@H](CC(=O)O)NC(=O)[C@H](CO)NC(=O)[C@@H]1CCCN1C(=O)[C@H](CCC(=O)O)NC(=O)[C@@H](NC(=O)CNC(=O)[C@H](C)NC(=O)CCCC[C@@H]1SC[C@@H]2NC(=O)N[C@@H]21)[C@@H](C)O)C(=O)N[C@H](C(=O)N[C@H](C(=O)N1CCC[C@H]1C(=O)N[C@@H](CC(C)C)C(=O)N[C@@H](CCCNC(=N)N)C(=O)N[C@H](C(=O)N[C@H](C(=O)N[C@@H](CCC(=O)O)C(=O)N[C@@H](CC(N)=O)C(=O)N[C@@H](CC(N)=O)C(=O)N[C@@H](Cc1ccc(O)cc1)C(=O)O)[C@@H](C)O)[C@@H](C)O)[C@@H](C)CC)[C@@H](C)CC [ephrin B1 294–312] (Biotin-AGTEPSDIIIPLRTTENNY-OH; C-terminus assumed)
Binding to the Tiam2 PHCCEx domain (in words): in the micromolar range

CC[C@H](C)[C@H](NC(=O)CNC(=O)[C@H](CC(C)C)NC(=O)[C@H](CCC(=O)O)NC(=O)CNC(=O)[C@@H]1CCCN1C(=O)[C@H](CCC(=O)O)NC(=O)[C@H](C)NC(=O)[C@H](CCC(=O)O)NC(=O)[C@H](CCCNC(=N)N)NC(=O)CCCC[C@@H]1SC[C@@H]2NC(=O)N[C@@H]21)C(=O)N[C@@H](C)C(=O)N[C@@H](CC(C)C)C(=O)N[C@@H](CCCNC(=N)N)C(=O)NCC(=O)NCC(=O)NCC(=O)N[C@H](C(=O)N[C@@H](C)C(=O)N[C@@H](CC(=O)O)C(=O)O)[C@@H](C)O [ephrin B3 286–303] (Biotin-REAEPGELGIALRGGGTAD-OH; C-terminus assumed)
Binding to the Tiam2 PHCCEx domain (in words): weaker binding
